Data taken from US20240140941A1, “DERIVATIVE OF 2,5-DIKETOPIPERAZINE COMPOUND, AND PREPARATION METHOD THEREFOR, PHARMACEUTICAL COMPOSITION THEREOF AND USE THEREOF” (DALIAN WZ PROBIOTICS AD HEALTH CO., LTD, priority 2020, published 2024).
Structures can show the parent of a compound that is named as a salt. Where two headings read alike, the source gives them in different places.

How the values were obtained:
[1] = Compound solubility experiment, Method 1: equilibrium solubility in pure water, LC-MS; format: physicochemical; conditions: ultrapure water, 37±1° C., shaken 24 hours; for solubility at 24 h: 37 °C, thermodynamic from solid
Method: Method 1: A 1.5 mL brown EP tube was taken, about 1 mg of compound was weighed respectively, and 1 mL of ultrapure water was added thereto. The mixture was vortexed, and sonicated until the compound was no longer dissolved (the solution was turbid or had suspended particles). The mixture was put into an incubation shaker, maintained at a temperature of (37±1° C.), shaken at 100 r/min for 24 hours, so as to achieve full dissolution equilibrium. After 24 hours, the supernatant was quickly filtered through a 0.45 μm microporous membrane, and the initial filtrate was discarded. 200 μL of the renewed filtrate was taken and diluted with 200 μL of methanol. The assay was repeated at least three times. According to the chromatographic conditions, the sample was injected by LC-MS, and the peak area was measured and the equilibrium solubility of each 2,5-diketopiperazine derivative in pure water was calculated.

[2] = tested on: NCI-H460; assay: Inhibition test on cell proliferation (MTT), NCI-H460; format: cell-based, human; conditions: 72 hours of drug treatment, MTT, read-out: IC50 (nM) NCI-H460
How it was run: (§1)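 Cells plated at 2000-6000 per well, allowed to adhere for 24 h, then exposed to serially diluted compound for 72 h at 37 °C, 5% CO2. Viability read by MTT reduction, with formazan dissolved in DMSO and absorbance taken at 490 nm. Inhibition rate calculated relative to untreated and zero-setting wells.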

[3] = tested on: BxPC-3; assay: Inhibition test on cell proliferation (MTT), BxPC-3; format: cell-based, human; conditions: 72 hours of drug treatment, MTT, read-out: IC50 (nM) BxPC-3
How it was run: as §1

[4] = tested on: HCC-LM3; assay: Inhibition test on cell proliferation (MTT), HCC-LM3; format: cell-based, human; conditions: 72 hours of drug treatment, MTT, read-out: IC50 (nM) HCC-LM3
Method: (§2) Tumor cells (NCI-H460, BxPC-3, HT-29, HCC-LM3) in the logarithmic growth phase were digested, centrifuged, and the supernatants were removed. Cells were resuspended by adding fresh culture medium, and counted using a cell counting plate. 100 μL of culture medium (containing cells) was added to a 96-well plate according to the standard of 2000 to 6000 cells per well and incubated in an incubator (37° C., 5% CO2) for 24 hours. After the cells were completely adhered to the wall, the test sample and Plinabulin were diluted to different concentrations using fresh culture medium, and 4 wells were set for each concentration. After 72 hours of drug treatment, the culture medium was removed, and 20 μL of MTT at a concentration of 5 mg/mL was added to each well. After 3-4 hours in the incubator, the MTT was discarded, and 100 μL of DMSO was added to each well, and placed in a 96-well plate shaker to completely dissolve the purple formazan. Subsequently, the absorbance (OD value) was detected at a wavelength of 490 nm using a microplate reader. The experiment also required setting up zero-setting wells (blank culture medium, MTT, DMSO). Cell inhibition rate=1−(OD value of drug-dosed group−OD value of zero-setting group)/(OD value of blank group−OD value of zero-setting group)×100%.

[5] = tested on: HT-29; assay: Inhibition test on cell proliferation (MTT), HT-29; format: cell-based, human; conditions: 72 hours of drug treatment
Method: as §2

| Structure (SMILES) | solubility at 24 h [1] [µg/mL] | IC50 ([2]; Homo sapiens, NCI-H460, 72 h) [nM] | IC50 ([3]; Homo sapiens, BXPC-3, 72 h) [nM] | IC50 ([4]; Homo sapiens, HCCLM3, 72 h) [nM] | IC50 ([5]; Homo sapiens, HT-29, 72 h) [nM] | IC50 [2] [nM] | IC50 [3] [nM] | IC50 [4] [nM] | IC50 [5] [nM] | melting point [°C] | Solubility [1] [µg/mL] |
| --- | --- | --- | --- | --- | --- | --- | --- | --- | --- | --- | --- |
| CC(C)c1c(/C=c2\[nH]c(=O)/c(=C/c3cccc(F)c3)[nH]c2=O)ncn1CCCN1CCOCC1 [PLN-2-9, (3Z,6Z)-3-fluorophenylmethylene-6-((5-isopropyl-1-(−3-morpholinyl)propylimidazol-4-yl)methylene)piperazine-2,5-dione] | < 0.5 | 8.51 ± 0.1 | 5.47 ± 0.57 | 5.13 ± 0.12 | 4.37 ± 0.62 | – | – | – | – | – | – |
| O=C(c1ccc(F)cc1)c1cccc(/C=c2\[nH]c(=O)/c(=C/c3ncn(CCCN4CCOCC4)c3C3CC3)[nH]c2=O)c1 [PLN-2-3] | < 0.25 | 4.9 ± 0.61 | 1.43 ± 0.95 | 6.31 ± 0.16 | 2.15 ± 0.33 | – | – | – | – | – | – |
| CC(C)c1c(/C=c2\[nH]c(=O)/c(=C/c3cccc(C(=O)c4ccc(F)cc4)c3)[nH]c2=O)ncn1CCCN1CCOCC1 [PLN-2-1, (3Z,6Z)-3-(3-(p-fluorobenzoyl)phenyl)methylene-6-((5-isopropyl-1-(3-morpholinyl)propylimidazol-4-yl)methylene)piperazine-2,5-dione] | < 0.5 | – | – | – | – | 3.45 ± 0.33 | 2.29 ± 0.82 | 4.2 ± 0.12 | 1.03 ± 0.11 | – | – |
| CC(C)c1c(/C=c2\[nH]c(=O)/c(=C/c3cc(F)cc(F)c3)[nH]c2=O)ncn1CCCN1CCOCC1 [PLN-2-62] | < 0.5 | 4.17 ± 0.75 | 3.44 ± 0.12 | 3.89 ± 0.16 | 3.49 ± 0.23 | – | – | – | – | – | – |
| C=CC(=O)N1CCN(CCCn2cnc(/C=c3\[nH]c(=O)/c(=C/c4cccc(F)c4)[nH]c3=O)c2C(C)C)CC1 [PLN-2-61-1] | – | – | – | – | – | 16.9 ± 1.29 | 9.37 ± 0.78 | 16.5 ± 5.66 | 14 ± 0.58 | 238.6 to 240.6 | – |
| CC(C)c1c(/C=c2\[nH]c(=O)/c(=C/c3ccccc3)[nH]c2=O)ncn1CCCN1CCOCC1 [PLN-2-5, (3Z,6Z)-3-benzylidene-6-((5-isopropyl-1-(−3-morpholinyl)propylimidazol-4-yl)methylene)piperazine-2,5-dione] | < 0.5 | 19.4 ± 1.63 | 12.5 ± 1.47 | 9.78 ± 2.21 | 11.8 ± 1.31 | – | – | – | – | 199.1 to 201.1 | – |
| O=c1[nH]/c(=C\c2ncn(CCCN3CCOCC3)c2C2CC2)c(=O)[nH]/c1=C\c1cccc(F)c1 [PLN-2-10, (3Z,6Z)-3-m-fluorophenylmethylene-6-((5-cyclopropyl-1-(−3-morpholinyl)propylimidazol-4-yl)methylene)piperazine-2,5-dione] | < 0.5 | 17.7 ± 5.18 | 8.97 ± 0.74 | 14.9 ± 0.22 | 10.6 ± 1.27 | – | – | – | – | – | – |
| Cc1ccccc1/C=c1\[nH]c(=O)/c(=C/c2ncn(CCCN3CCOCC3)c2C(C)C)[nH]c1=O [PLN-2-49, (3Z,6Z)-3-(2-Methylphenyl)methylene-6-((5-isopropyl-1-(3-morpholinyl)propylimidazol-4-yl)methylene)piperazine-2,5-dione] | – | 33.7 ± 0.7 | 27.3 ± 2.75 | 18.4 ± 1.42 | 35.2 ± 2.15 | – | – | – | – | 169 to 171 | – |
| C=CC(=O)N1CCN(CCCn2cnc(/C=c3\[nH]c(=O)/c(=C/c4cccc(F)c4)[nH]c3=O)c2C(C)C)CC1 [PLN-2-61, (3Z,6Z)-3-(3-Fluorophenyl)methylene-6-(5-isopropyl-1-(3-(4-(acryloyl)piperazinyl)propylimidazol-4-yl)methylene)piperazine-2,5-dione] | – | 19.6 ± 2.15 | 8 ± 1.15 | 31.2 ± 6.92 | 14.1 ± 0.22 | – | – | – | – | 182 to 184 | – |
| CC(C)c1c(/C=c2\[nH]c(=O)/c(=C/c3cc(F)ccc3F)[nH]c2=O)ncn1CCCN1CCOCC1 [PLN-2-7, (3Z,6Z)-3-(2,5-difluorophenyl)methylene-6-((5-isopropyl-1-(3-morpholinyl)propylimidazol-4-yl)methylene)piperazine-2,5-dione] | < 0.5 | 6.12 ± 0.43 | 4.92 ± 1.48 | 3.3 ± 1.88 | 4.03 ± 0.19 | – | – | – | – | 211.6 to 213.6 | – |
| CC(C)(C)c1[nH]cnc1/C=c1\[nH]c(=O)/c(=C/c2ccccc2)[nH]c1=O [Plinabulin hydrochloride, reference compound] | – | – | – | – | – | – | – | – | – | – | 7.654 |
| Cc1cccc(/C=c2\[nH]c(=O)/c(=C/c3ncn(CCCN4CCOCC4)c3C(C)C)[nH]c2=O)c1 [PLN-2-51, (3Z,6Z)-3-(3-Methylphenyl)methylene-6-((5-isopropyl-1-(3-morpholinyl)propylimidazol-4-yl)methylene)piperazine-2,5-dione] | – | 21.7 ± 3.04 | 13.9 ± 3.21 | 7.49 ± 0.12 | 9.03 ± 0.29 | – | – | – | – | 178 to 180 | – |
| CC(C)c1c(/C=c2\[nH]c(=O)/c(=C/c3cccc(F)c3)[nH]c2=O)ncn1CCCN1CCO[C@H](C)C1 [PLN-2-56, (3Z,6Z)-3-(3-Fluorophenyl)methylene-6-(5-isopropyl-1-(3-((R)-2-methylmorpholinyl)propylimidazol-4-yl)methylene)piperazine-2,5-dione] | – | 5.59 ± 1.4 | 3.24 ± 0.73 | 4.26 ± 0.25 | 2.62 ± 0.91 | – | – | – | – | 212 to 214 | – |
| CC(C)c1c(/C=c2\[nH]c(=O)/c(=C/c3cccc(OC(F)(F)F)c3)[nH]c2=O)ncn1CCCN1CCOCC1 [PLN-2-53, (3Z,6Z)-3-(3-Tifluoromethoxyphenyl)methylene-6-((5-isopropyl-1-(3-morpholinyl)propylimidazol-4-yl)methylene)piperazine-2,5-dione] | – | 11.6 ± 1.11 | 7.17 ± 0.52 | 6.55 ± 1.39 | 9.71 ± 0.74 | – | – | – | – | 251 to 253 | – |
| CC(C)c1c(/C=c2\[nH]c(=O)/c(=C/c3ccc(F)c(F)c3)[nH]c2=O)ncn1CCCN1CCOCC1 [PLN-2-63] | < 0.5 | 72.2 ± 4.86 | 55.3 ± 3.42 | 64.9 ± 5.12 | – | – | – | – | – | – | – |
| O=c1[nH]/c(=C\c2ncn(CCCN3CCOCC3)c2C2CC2)c(=O)[nH]/c1=C\c1cccc(Oc2ccc(F)cc2)c1 [PLN-2-4] | < 0.5 | 25.7 ± 2.62 | – | – | – | – | – | – | – | – | – |
| CC(C)c1c(/C=c2\[nH]c(=O)/c(=C/c3cccc(F)c3)[nH]c2=O)ncn1CCCN1CCO[C@@H](C)C1 [PLN-2-57, (3Z,6Z)-3-(3-Fluorophenyl)methylene-6-(5-isopropyl-1-(3-((S)-2-methylmorpholinyl)propylimidazol-4-yl)methylene)piperazine-2,5-dione] | – | 16.6 ± 4.94 | 8.56 ± 0.01 | 13.9 ± 2.5 | – | – | – | – | 5.07 ± 2.12 | 211 to 213 | – |
| Cc1cccc(/C=c2\[nH]c(=O)/c(=C/c3ncn(CCCN4CCOCC4)c3C(C)C)[nH]c2=O)c1C [PLN-2-50, (3Z,6Z)-3-(2,3-Dimethylphenyl)methylene-6-((5-isopropyl-1-(3-morpholinyl)propylimidazol-4-yl)methylene)piperazine-2,5-dione] | – | 41.3 ± 1.25 | 23 ± 1.56 | 20.8 ± 2.56 | 37.1 ± 3.15 | – | – | – | – | 164 to 166 | – |
| COc1cccc(/C=c2\[nH]c(=O)/c(=C/c3ncn(CCCN4CCOCC4)c3C(C)C)[nH]c2=O)c1 [PLN-2-52, (3Z,6Z)-3-(3-Methoxyphenyl)methylene-6-((5-isopropyl-1-(3-morpholinyl)propylimidazol-4-yl)methylene)piperazine-2,5-dione] | – | 16.5 ± 3.48 | 13.9 ± 0.89 | 7.54 ± 0.68 | 8.49 ± 0.54 | – | – | – | – | 184 to 186 | – |
| CC(C)c1c(/C=c2\[nH]c(=O)/c(=C/c3cccc4ccccc34)[nH]c2=O)ncn1CCCN1CCOCC1 [PLN-2-54, (3Z,6Z)-3-(1-Naphthalenyl)methylene-6-((5-isopropyl-1-(3-morpholinyl)propylimidazol-4-yl)methylene)piperazine-2,5-dione] | – | 8.28 ± 0.91 | 5.74 ± 2.19 | 3.48 ± 2.6 | 6.55 ± 0.33 | – | – | – | – | 248 to 250 | – |
